Source: patent US12268691B2 (Sinopia Biosciences, Inc., priority 2016, dated 2025)

Experiments:
[1] = test system: 433 gene transcriptomic signature; details: 10 uM, MCF7 cells; FIG. 3
CYP1A2 = biological target: T1, CYP1A2 (Homo sapiens, UniProt P05177); details: cited from earlier work
T1 sequence (P05177 1-516): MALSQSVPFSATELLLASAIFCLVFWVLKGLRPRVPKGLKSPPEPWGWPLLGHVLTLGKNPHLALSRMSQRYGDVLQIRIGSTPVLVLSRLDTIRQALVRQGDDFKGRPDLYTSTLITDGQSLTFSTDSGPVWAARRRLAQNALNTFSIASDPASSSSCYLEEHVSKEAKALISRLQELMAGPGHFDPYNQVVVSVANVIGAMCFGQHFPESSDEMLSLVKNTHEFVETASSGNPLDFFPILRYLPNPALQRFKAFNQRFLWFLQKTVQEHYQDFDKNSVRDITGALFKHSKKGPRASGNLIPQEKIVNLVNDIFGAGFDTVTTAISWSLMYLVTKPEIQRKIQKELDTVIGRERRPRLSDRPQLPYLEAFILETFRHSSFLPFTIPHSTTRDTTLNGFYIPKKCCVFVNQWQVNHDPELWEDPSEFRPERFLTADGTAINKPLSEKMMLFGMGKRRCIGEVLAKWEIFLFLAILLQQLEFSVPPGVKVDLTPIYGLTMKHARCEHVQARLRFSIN

extrapyramidal syndrome propensity score, compound alone [1]: much higher propensity than risperidone
Structure (SMILES): O=C(CCCN1CCC(O)(c2ccc(Cl)cc2)CC1)c1ccc(F)cc1 [haloperidol]
interaction with CYP1A2 (CYP1A2): has not been shown to interact with haloperidol
